Molecules are shown by their SMILES.

In this experiment the target is T1, purified alkaline phosphatase from human osteosarcoma (bone isoenzyme) (Homo sapiens, UniProt P05186).
T1 construct: Human Osteosarcoma obtained from nude mice (nu/nu) was frozen at -70° C. until required; from tissue; host or cells: human osteosarcoma tumour tissue obtained from nude mice (nu/nu); enzyme purified by n-butanol extraction, acetone and ammonium sulfate precipitation, Bio Gel-HT, DEAE Sepharose and Sephacryl S-400
T1 sequence (P05186 18-502 limits assumed): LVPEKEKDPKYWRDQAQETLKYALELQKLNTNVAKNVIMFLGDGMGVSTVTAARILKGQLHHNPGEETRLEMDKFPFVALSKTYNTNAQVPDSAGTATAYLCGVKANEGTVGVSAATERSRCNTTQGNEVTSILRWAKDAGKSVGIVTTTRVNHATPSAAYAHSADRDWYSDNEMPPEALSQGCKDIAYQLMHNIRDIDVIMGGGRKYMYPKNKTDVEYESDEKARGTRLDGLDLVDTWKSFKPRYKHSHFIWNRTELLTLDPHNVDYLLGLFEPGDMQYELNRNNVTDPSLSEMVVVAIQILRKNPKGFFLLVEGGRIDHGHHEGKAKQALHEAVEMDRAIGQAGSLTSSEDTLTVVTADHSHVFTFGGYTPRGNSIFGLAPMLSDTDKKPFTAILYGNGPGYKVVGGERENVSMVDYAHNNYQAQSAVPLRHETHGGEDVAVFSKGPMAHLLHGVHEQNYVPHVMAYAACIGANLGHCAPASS
As to the kind of experiment: Inhibition of alkaline phosphatase by amino acids (release of p-nitrophenol from p-nitrophenylphosphate). To be noted: amino acid at 5 mM in the reaction mixture; 4 mM p-nitrophenylphosphate, pH 10.2. In kind it is biochemical. How it is done: The enzyme was assayed by measuring the release of p-nitrophenol from p-nitro-phenylphosphate at ambient temperature using a Gilford (model 250) recording spectrophotometer. The assay mixture (0.5 ml) contained 0.3M 2-amino-2-methyl-1-propanol, pH 10.2, 4 mM p-nitrophenylphosphate, 20 ug MgCl2 and 10 ul of diluted enzyme (u=micro). The formation of p-nitrophenol was measured spectrophotometrically at 410 nm. Units represent u moles of p-nitrophenol formed per minute at 22° C.
In order to define more clearly the isoenzyme, inhibition studies using amino acids were applied to the enzyme samples. The assay was carried out in the presence of L-homoarginine or L-phenylalanine at 5 mM concentration in the reaction mixtures respectively.
Based on the sensitivity to heat inactivation and inhibitions by L-homoarginine and L-phenylalanine, the properties of alkaline phosphatase from human osteosarcoma are consistent with those of the bone isoenzyme. It is generally considered in the art that the ALP from normal bone and osteosarcoma are probably identical.

For the molecule `N=C(N)NCCCC[C@H](N)C(=O)O` [L-homoarginine], the inhibition (usually the relative decrease from the control value, in per cent) at 5000 µM worked out at 64%.

On to `N[C@@H](Cc1ccccc1)C(=O)O` [L-phenylalanine], for which the inhibition at 5000 µM turned out to be 5%.

These data come from patent US5087573A, “Monoclonal antibody against bone alkaline phosphatase” (University of Kansas, priority 1988, dated 1992).
